Assay results as given in ChEMBL document CHEMBL3217646, “Inhibitors of bacterial tubulin target bacterial membranes in vivo” (Medchemcomm, 2013).
In brackets after ≈: the same amount, converted by molar mass. Activity calls are given as the source filed them. No cut-off for these calls is given here.

Columns and labels:
Bacillus subtilis [1] = assay: Increase in bacterial membrane permeability in Bacillus subtilis subsp. subtilis str. 168 at 1 times MIC pre-treated for 5 mins and measured 30 mins post dye addition by propidium iodide dye based flow cytometry; type: functional, organism-based
Bacillus subtilis [2] = assay: Antimicrobial activity against Bacillus subtilis subsp. subtilis str. 168 after 18 hrs by macro-dilution method; type: functional; conditions: subsp. subtilis str. 168, 18 h
C2C12 [3] = assay: Induction of membrane disruption in mouse C2C12 cells assessed as increase in oxygen consumption rate at 0.1 to 1.2 uM; type: functional, cell-based
C2C12 [4] = assay: Induction of membrane disruption in mouse C2C12 cells assessed as maximum increase in oxygen consumption rate at 0.6 uM; type: functional, cell-based
Bacillus subtilis [5] = assay: (§1) Induction of transmembrane potential loss in Bacillus subtilis subsp. subtilis str. 168 assessed as lambda575/lambda530 fluorescence emission intensity ratio at 1 times MIC pre-treated for 5 mins and measured 15 mins post dye addition by DiOC2 dye based flow cytometry; type: functional
Bacillus subtilis [6] = assay: Protonophore activity in Bacillus subtilis subsp. subtilis str. 168 assessed as induction of rapid equlibration of delta-pH at 1 times MIC; type: functional, organism-based
Bacillus subtilis [7] = assay: Induction of membrane associated proteins mislocalization in Bacillus subtilis subsp. subtilis str. 168 assessed as reduction in GFP-MinD protein localization by fluorescence assay; type: functional, organism-based
Bacillus subtilis [8] = assay: Induction of transmembrane potential loss in Bacillus subtilis subsp. subtilis str. 168 at 1 times MIC pre-treated for 5 mins and measured 15 mins post dye addition by DiOC2 dye based flow cytometry; type: functional, organism-based
Bacillus subtilis [9] = assay: Protonophore activity in Bacillus subtilis subsp. subtilis str. 168 assessed as induction of rapid equlibration of delta-pH at 30 uM; type: functional, organism-based
C2C12 [10] = assay: Induction of membrane disruption in mouse C2C12 cells assessed as maximum increase in oxygen consumption rate at 30 uM; type: functional, cell-based
Bacillus subtilis [11] = assay: as §1, with “for 20” for “for 5”, “cytometry (reference value: 0.257 +/- 0.003 no unit)” for “cytometry”; type: functional
C2C12 [12] = assay: Induction of membrane disruption in mouse C2C12 cells assessed as change in oxygen consumption rate; type: functional, cell-based

Compound	Activity (Bacillus subtilis [1])	MIC (Bacillus subtilis [2])	Activity (C2C12 [3])	Activity (C2C12 [4])	Ratio (Bacillus subtilis [5])	Activity (Bacillus subtilis [6])	Activity (Bacillus subtilis [7])	Activity (Bacillus subtilis [8])	Activity (Bacillus subtilis [9])	Activity (C2C12 [10])	Ratio (Bacillus subtilis [11])	Activity (C2C12 [12])
N#CC(C#N)=NNc1cccc(Cl)c1 [CARBONYL CYANIDE M-CHLOROPHENYLHYDRAZONE]	inactive	10 µM (≈ 2.05 µg/mL)	Active	Active	0.045	Active	Active	–	–	–	–	–
Oc1ccc(Cl)cc1Cc1cc(Cl)cc(Cc2cc(Cl)ccc2O)c1O	inactive	0.16 µM (≈ 0.0656 µg/mL)	–	–	–	inactive	Active	Active	Active	Active	–	–
O=C/C=C/c1ccccc1 [CINNAMALDEHYDE]	Active	2500 µM (≈ 330 µg/mL)	–	–	–	inactive	Active	Active	–	–	–	–
NC(=O)c1c(F)ccc(OCc2nc3cc(Cl)cnc3s2)c1F	inactive	2.5 µM (≈ 0.889 µg/mL)	–	–	–	–	inactive	inactive	–	–	–	–
CO/N=C(\C(=O)N[C@@H]1C(=O)N2C(C(=O)O)=C(COC(N)=O)CS[C@H]12)c1ccco1 [CEFUROXIME]	inactive	20 µM (≈ 8.49 µg/mL)	–	–	–	–	inactive	–	–	–	0.306	–
CC(C)c1c(O)ccc2c1CC[C@H]1C(C)(C)CCC[C@]21C [TOTAROL]	Active	2.5 µM (≈ 0.716 µg/mL)	–	–	–	inactive	Active	Active	–	–	–	inactive
C[n+]1cc2c3c(ccc2c2ccc4cc5c(cc4c21)OCO5)OCO3 [SANGUINARIUM]	Active	10 µM	–	–	–	inactive	–	Active	–	–	–	–
COC(=O)CC1Cc2cc3cc(OC)c(-c4c(OC)cc5cc6c(c(O)c5c4O)C(=O)OC(CC(=O)OC)C6)c(O)c3c(O)c2C(=O)O1 (stereo unspecified) [VIRIDITOXIN]	–	0.63 µM (≈ 0.417 µg/mL)	–	–	–	inactive	Active	inactive	–	–	–	–
